Results from patent US10611732B2, “HIV replication inhibiting pyrimidines” (Janssen Pharmaceutica NV, priority 2001, dated 2020).
Where two headings read alike, the source gives them in different places.

Key:
HIV = test: microbe, parasite or virus in culture; details: for pIC50 (−log IC50): HIV-infected MT-4 cells; for pIC50 (−log IC50) / IC50: dose achieving 50% protection, MTT, OD 540 nm; for pSI (pCC50-pIC50): selectivity index, ratio of CC50 to IC50, as log difference; for IC50: Human immunodeficiency virus 1, MT4, read-out: pIC50 (−log IC50), HIV-infected MT-4 cells (converted)
Experimental: (§1) A rapid, sensitive and automated assay procedure was used for the in vitro evaluation of anti-HIV agents. An […] T4-cell line, MT-4, which was previously shown (Koyanagi et al., Int. J Cancer, 36, 445-451, 1985) to be highly susceptible to and permissive for HIV infection, served as the target cell line. Inhibition of the HIV-induced cytopathic effect was used as the end point. The viability of both HIV- and mock-infected cells was assessed spectrophotometrically via the in situ reduction of 3-(4,5-dimethylthiazol-2-yl)-2,5-diphenyltetrazolium bromide (MTT). The 50% cytotoxic concentration (CC50 in M) was defined as the concentration of compound that reduced the absorbance of the mock-infected control sample by 50%. The percent protection achieved by the compound in HIV-infected cells was calculated by the following formula:
(§2) [formula] whereby (ODT)HIV is the optical density measured with a given concentration of the test compound in HIV-infected cells; (ODC)HIV is the optical density measured for the control untreated HIV-infected cells; (ODC)MOCK is the optical density measured for the control untreated mock-infected cells; all optical density values were determined at 540 nm. The dose achieving 50% protection according to the above formula was defined as the 50% inhibitory concentration (IC50 in M). The ratio of CC50 to IC50 was defined as the selectivity index (SI).
(§3) Table 6 lists the pIC50 (−log IC50), pCC50 (−log CC50) and pSI (pCC50-pIC50) values for the compounds of formula (I).

mock-infected MT-4 cells = test: cytotoxicity in mock-infected MT-4 cells (MTT)
Experimental: as §1, §2, §3

Row | Compound | pIC50 (−log IC50) (HIV) | pSI (pCC50-pIC50) (HIV) | pCC50 (−log CC50) (mock-infected MT-4 cells) [M] | IC50 (HIV) [nM] | pCC50 (−log CC50) (mock-infected MT-4 cells; mock-infected MT-4 cells, concentration reducing absorbance of control by 50%, MTT) [M]
1 | Cc1cc(/C=C\Br)cc(C)c1Oc1ccnc(Nc2ccc(C#N)cc2)n1 [Compound 177] | 8.3 | <−4.3 | <4.0 |  | 
2 | Cc1cc(CN(C)CCC#N)cc(Br)c1Nc1ccnc(Nc2ccc(C#N)cc2)n1 [Compound 241] | 9.4 | −4.1 | 5.3 |  | 
3 | Cc1cc(/C=C/C#N)cc(C)c1Nc1ccnc(Nc2ccc(C#N)cc2)n1 [Compound 1, 4-[[4-[[4-(2-cyanoethenyl)-2,6-dimethylphenyl]amino]-2-pyrimidinyl]amino]benzonitrile (E)] |  | −4.4 |  | 0.398 | 5.0
4 | CC/C(=C\C#N)c1cc(C)c(Nc2ccnc(Nc3ccc(C#N)cc3)n2)c(C)c1 [Compound 148] | 8.8 | −3.9 | 4.9 |  | 
5 | Cc1cc(/C=C/c2cccnc2)cc(C)c1Nc1ccnc(Nc2ccc(C#N)cc2)n1 [Compound 145] |  | −3.4 |  | 2 | 
6 | Cc1cc(/C=C/C(=O)N2CCOCC2)cc(C)c1Oc1ccnc(Nc2ccc(C#N)cc2)n1 [Compound 216] |  | −3.6 |  | 6.31 | 
7 | CO/N=C(\c1cc(C)c(Nc2ccnc(Nc3ccc(C#N)cc3)n2)c(C)c1)C(C)C [Compound 9] |  | −4 |  | 1.58 | 
8 | Cc1cc(/C(Cl)=C\C#N)cc(C)c1Nc1ccnc(Nc2ccc(C#N)cc2)n1 [Compound 124] |  | −3.8 |  | 3.16 | 
9 | CC(=O)c1cccc(-c2cc(C)c(Nc3ccnc(Nc4ccc(C#N)cc4)n3)c(C)c2)c1 [Compound 34] |  | −3.2 |  | 10 | 
10 | Cc1cc(-c2ccco2)cc(C)c1Nc1ccnc(Nc2ccc(C#N)cc2)n1 [Compound 3] |  | −2.9 |  | 3.98 | 
11 | Cc1cc(/C=C/C(=O)N2CC=CC2)cc(C)c1Oc1ccnc(Nc2ccc(C#N)cc2)n1 [Compound 209] |  | −3.7 |  | 2.51 | 
12 | Cc1cc(/C=C/C(=O)N2CCN(C)CC2)cc(C)c1Nc1ccnc(Nc2ccc(C#N)cc2)n1 [Compound 155] |  | −2.5 |  | 1.58 | 
13 | CCN(Cc1ccncc1)Cc1cc(C)c(Nc2ccnc(Nc3ccc(C#N)cc3)n2)c(C)c1 [Compound 79] |  | −2.7 |  | 10 | 
14 | Cc1cc(C=CC#N)cc(C)c1Oc1ccnc(Nc2ccc(C#N)cc2)n1 [Compound 25] | 9 | −5 |  |  | 
15 | Cc1cc(/C=C/C(=O)N2CCOCC2)cc(C)c1Nc1ccnc(Nc2ccc(C#N)cc2)n1 [Compound 156] |  | −2.6 |  | 20 | 
16 | Cc1cc(CCC#N)cc(C)c1Nc1ccnc(Nc2ccc(C#N)cc2)n1 [Compound 24] |  | −3.4 |  | 0.794 | 
17 | Cc1cc(C(O)CC#N)cc(C)c1Nc1ccnc(Nc2ccc(C#N)cc2)n1 (centres unmarked) [Compound 18] |  | −4.0 |  | 1.58 | 
18 | Cc1cc(/C=C(\C#N)c2cccs2)cc(C)c1Nc1ccnc(Nc2ccc(C#N)cc2)n1 [Compound 49] |  | −3.2 |  | 10 | 
19 | Cc1cc(-c2ccsc2)cc(C)c1Nc1ccnc(Nc2ccc(C#N)cc2)n1 [Compound 21] |  | −3.5 |  | 3.98 | 
20 | Cc1cc(-n2cccc2)cc(C)c1Oc1ccnc(Nc2ccc(C#N)cc2)n1 [Compound 118] |  | <−4.1 |  | 3.98 | 
21 | Cc1cc(Cn2ccnc2)cc(C)c1Nc1ccnc(Nc2ccc(C#N)cc2)n1 [Compound 70] |  | −3.3 |  | 7.94 | 
22 | Cc1cc(CN2CCSC2)cc(C)c1Nc1ccnc(Nc2ccc(C#N)cc2)n1 [Compound 78] |  | −3.5 |  | 3.98 | 
23 | Cc1cc(/C=C/C(=O)N(C)C2CCN(C)CC2)cc(C)c1Oc1ccnc(Nc2ccc(C#N)cc2)n1 [Compound 210] |  | −3.5 |  | 5.01 | 
